Results reported in patent publication US11980620B2, “Compounds and methods for treatment of Diamond Blackfan anemia” (THE CHILDREN'S MEDICAL CENTER CORPORATION, priority 2017, dated 2024).
Entries after “also recorded” stand apart in the source; their conditions may differ.

Key:
DBA iPSCs = assay: Cytotoxicity (Annexin and DAPI positive cells) at varying doses; assay type: cell-based, human; conditions: drug doses up to 20 μM
Excerpt: FIGS. 9A-9D show compounds screened for rescue of erythroid differentiation defects. […] (FIG. 9B) List of compounds screened that provided promising results. (FIG. 9C) FACS plots showing GlyA and CD71 expression levels for indicated genotype (top panels). Micrographs showing GlyA^+ CD71^+ cells in indicated genotype (bottom panels). (FIG. 9D) Plot showing the percentage of Annexin and DAPI positive cells following varying doses of SMER28.

[1] = Dose escalation tolerability in mice; assay type: in vivo; conditions: dose escalation up to 20 mg/kg
Excerpt: In following evaluation, the effects of administration of SMER28 to mice with irradiation-induced anemia, a model that enables dose-finding and initial testing of safety and bioactivity. […] To assess bioactivity, we measured the levels of autophagic marker LC3 in treated animals. […] (FIG. 10C). We tested the effect of this compound on human cells by treating NSG mice transplanted with human CD34-5F and CB cells. SMER28 increased the output of GlyA^+ RBCs from DBA CD34-5F cells (FIG. 10D).
Drug treatments. SMER28 was purchased from Tocris and diluted in 10 mM aliquots in DMSO. The final concentration for CD34-5F and CB CD34^+erythroid treatments was 0.2-10 μM as indicated in the text. The final concentration for K562 cell treatments was 20-40 μM. Ferric citrate (1-50 μM) and deferoxamine (100-200 μM) (Sigma) were dissolved in PBS and added on days 0-4 of “expansion” culture, and washed off prior to erythroid stage I (days 4-9) differentiation. For in vivo experiments, SMER28 aliquots were diluted in vehicle solution: 30% PEG-400, 5% propylene glycol, and 0.5% Tween-80. Dosing for human xenograft experiments was 2 mg/kg; for mouse models 10-20 mg/kg. Dexamethasone was purchased as Dex-sodium phosphate (DexSP) water-soluble formulation (Santa Cruz), and diluted in PBS vehicle (1 mg/kg). […]

[2] = tested on: rps29+/- zebrafish with atg5 knockdown; assay: atg5 morpholino knockdown in rps29+/- zebrafish, hemoglobin staining; assay type: in vivo; conditions: 1.6 ng atg5 morpholino; SMER28 1 μM
Description: FIGS. 11A-11C show effect of SMER28 on CD34+ progenitors. (FIG. 11A) Protein levels of LC3-I and LC3-II in control and SMER28 treated mice. GADPH is used as a loading control. […] (FIG. 11C) Atg5 morpholino treatment of rps29^+/− zebrafish.
(FIG. 13A) Induction of autophagy by SMER28 (40 μM) monitored by protein levels of p62, LC3-I, and LC3-II after 24 hours. Cells were also treated with 5-FU (100 nM) to induce autophagy, or inhibitor of transcription actinomycin D (ActD; 100 nM). (FIG. 13B) Induction of autophagy by SMER28 (40 μM) monitored by protein levels of p62, LC3-I, and LC3-II after 24 hours treatment with or without lysosomal blockade with bafilomycin A (200 nM for 4 hours). Untreated samples are shown at higher exposure, to capture dynamic changes in the LC3-II levels. Rapamycin (200 nM) is a positive control. LC3-II levels relative to GAPDH are quantitated on the right. (FIG. 13C) Erythroid differentiation of CD34-5F cells transduced with shRNAs for luciferase (LUC) or ATG5±SMER28. Representative flow plots and quantitation showing the number of erythroid cells induced by SMER28 (10 μM) normalized to DMSO. […] Representative images (left), and quantitation (right) with embryos grouped by high, medium, and low levels of benzidine staining. […]

DBA CD34-5F cells = assay: NSG mice transplanted with DBA CD34-5F progenitors, erythroid proportion of human graft; assay type: in vivo
Description: (§1) (FIG. 10A) SMER28 rescues RBC output in rps29^+/− zebrafish embryos. The level of hemoglobin in the yolk sac was visualized 40hpf with benzidine staining. Images are representative of the proportion of embryos indicated (of total counted). (FIG. 10B) Quantitation of SMER28 rescue for a range of 0.1-1 μM, with embryos grouped by high, medium, and low levels of hemoglobin staining. (FIG. 10C) Peripheral blood (PB) RBC counts and hematocrit in mice with irradiation-induced anemia. Mice were treated with the PEG400-based vehicle containing DMSO (VEH) (n=11), 1 mg/kg Dex (sodium-phosphate) (n=13), or 10 mg/kg SMER28 (n=9) for 3 weeks, bled, and assessed. Data are combined from 3 independent experiments. (FIG. 10D) Erythroid cells as proportion of the human graft in mice transplanted with DBA CD34-5F progenitors, and treated as in (FIG. 1c). (FIG. 10E) Levels of human engraftment in NSG mouse bone marrow (BM) transplanted with CB CD34^+ cells. Mice were treated with DMSO plus vehicle (VEH) (n=10), 1 mg/kg Dex (sodium-phosphate) (n=6), or 2 mg/kg SMER28 (n=11) for 4 weeks. (FIG. 10F) The proportion of erythroid, myeloid, and lymphoid (B cells) lineages within the human graft in vehicle- and SMER28-treated mice transplanted with CB CD34^+ cells. Only the effect on the erythroid lineage was significant. Data in FIGS. 10E-10G are pooled from 2 independent experiments. […]

[3] = tested on: rps29+/- zebrafish embryos; assay: Hemoglobin (benzidine) staining in rps29 mutant zebrafish embryos; assay type: in vivo
Description: as §1

With `C=CCNc1ncnc2ccc(Br)cc12` [SMER28, 6-Bromo-N-2-propenyl-4-quinazolinam] the Cytotoxicity (DBA iPSCs) was “not observed”, the “tolerability / overt toxicity” value [1] was “well tolerated” and the “rescue of erythropoiesis after atg5 knockdown” value [2] was “abolished”. The “output of GlyA+ RBCs from DBA CD34-5F cells” value (DBA CD34-5F cells) was “increased”, the “embryos showing high levels of hemoglobin” value ([3]; 1 μM, 40 hpf, vehicle-treated controls 20%, p<0.05) was “Over 50%” and the “hemoglobin staining / RBC output in yolk sac” value ([3]; treated for 40 hpf, benzidine staining) was “robust increase; also recorded: rescues”.
